Experimental data: patent EP0334967B1, “KERATOSIS-TREATING AGENT” (priority 1987, dated 1989)
Read-outs that look alike come from different tables or passages of the source.

Legend:
cyclooxygenase = test: Cyclooxygenase-inhibiting action (PGE2 formation, rabbit kidney marrow microsome fraction); assay type: biochemical; settings: cyclooxygenase from rabbit kidney marrow microsomes, [1-14C] arachidonic acid, 37°C 15 minutes; tested at 40, 20, 10 or 5 µM
Description: To 7.0 g of rabbit kidney marrow was added 60 ml of a 0.1M phosphate buffer solution (pH 7.5) containing 1 mM glutathione, and the mixture was homogenized by using a polytrone. The homogenate was subjected to the centrifugal separation under. 105,000 x G for 60 minutes to obtain a microsome fraction, and the fraction was dissolved in 7 ml of a 0.1M phosphate buffer solution (pH 7.5) containing 1 mM glutathione to obtain a standard enzyme of cyclooxygenase.
To 15 µl of the obtained standard enzyme were added 4 mM glutathione, 10 mM tryptophan, 0.25 µM hemoglobin, and a phosphate buffer solution (pH 7.5), each concentration being the final concentration, and [1-¹⁴C] arachidonic acid (5 x 10⁴ dpm) and cis-(6)-shogaol were added to a final concentration of 40, 20, 10 or 5 µM and a total volume of 200 µl. Incubation was carried out at 37 °C for 15 minutes, and 1N hydrochloric acid was added to stop the reaction. Prostaglandin E₂ (PGE₂) was added as the carrier and the reaction product was extracted with 2 ml of ether. […] Coloration was effected with an iodine vapor, the portion corresponding of […] was scratched out, and the radioactivity of PGE₂ was measured by a liquid scintillation counter. The inhibition ratio at each concentration was calculated according to the following formula, and the 1C₅₀ was determined. […]

[1] = tested on: male mice of the ICR line; test: Acute toxicity test; settings: mouse, in vivo, po, 500 mg/kg
Description: (§1) The acute toxicity test of cis-(6)-shogaol was carried out by using male mice of the ICR line.

5-lipoxygenase = molecular target: T1, 5-lipoxygenase (Rattus norvegicus, UniProt P12527); test: 5-Lipoxygenase-inhibiting action (5-HETE formation, enzyme from RBL-1 cultured cells); assay type: biochemical; settings: 5-lipoxygenase from RBL-1 cells, 10 µM arachidonic acid, 37°C 10 minutes; tested at 5, 1 or 0.5 µM
T1 construct: The supernatant was used as the standard enzyme of 5-lipoxygenase; endogenous in cells; host or cells: RBL-1 cultured cells, sonicated; 105,000 x G supernatant
T1 sequence (P12527 1-673): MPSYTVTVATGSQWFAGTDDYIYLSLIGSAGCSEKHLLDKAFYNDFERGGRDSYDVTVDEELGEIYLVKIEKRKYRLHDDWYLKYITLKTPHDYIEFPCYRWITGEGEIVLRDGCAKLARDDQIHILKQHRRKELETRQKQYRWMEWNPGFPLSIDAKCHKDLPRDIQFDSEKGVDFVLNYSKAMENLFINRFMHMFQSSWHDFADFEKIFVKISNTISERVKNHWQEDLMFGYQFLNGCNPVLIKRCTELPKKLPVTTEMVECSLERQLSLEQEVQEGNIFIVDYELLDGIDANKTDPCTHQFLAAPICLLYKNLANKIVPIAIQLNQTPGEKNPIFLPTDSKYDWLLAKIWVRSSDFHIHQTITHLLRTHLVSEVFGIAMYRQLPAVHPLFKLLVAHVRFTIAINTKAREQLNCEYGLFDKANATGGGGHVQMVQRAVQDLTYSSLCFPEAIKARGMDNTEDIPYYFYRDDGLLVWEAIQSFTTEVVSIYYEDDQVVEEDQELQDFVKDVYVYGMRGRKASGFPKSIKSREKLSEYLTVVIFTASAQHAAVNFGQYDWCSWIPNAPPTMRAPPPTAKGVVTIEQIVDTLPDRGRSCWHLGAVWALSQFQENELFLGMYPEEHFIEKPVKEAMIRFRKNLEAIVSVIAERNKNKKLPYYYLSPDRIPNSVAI
Description: RBL-1 cultured cells were suspended in a 50 mM phosphate buffer solution (pH 7.4) containing 1 mM EDTA and 10% ethylene glycol so that the cell concentration was 5 x 10⁶ per ml, and the cell suspension was subjected to an ultrasonic wave treatment. Then, centrifugal separation was carried out under 10,000 x G for 10 minutes and then under 105,000 x G for 60 minutes. The supernatant was used as the standard enzyme of 5-lipoxygenase.
A test tube was charged with a 50 mM phosphate buffer solution, 1.5 mM calcium chloride, 20 µM indomethacin, 18 mM glutathione, 6 mM ATP, 10 µM arachidonic acid, the obtained standard enzyme, and an ethanol solution of cis-(6)-shogaol, to a total volume of 0.6 ml and a final concentration of 5, 1 or 0.5 µM, and a reaction was carried out at 37°C for 10 minutes. […] The amount of 5-HETE in the liquid measured by the high-speed liquid chromatography [column = TSK-gel ODS-80TM (supplied by Toso), moving phase = acetonitrile/water/ acetic acid (60/40/0.02), flow rate = 1 ml/min, detection = ultraviolet ray (235 nm)], and the obtained value was designated as the enzyme activity. The inhibition ratio at each concentration was calculated by the following formula, and the concentration giving an inhibition ratio of 50% (hereinafter referred to as "IC₅₀") was determined. […]

balb/c 3T3 cells = test: Inhibitory action to EGF stimulated cell growth (3H-thymidine incorporation); assay type: cell-based; settings: 16 hours + 8 hours 3H-thymidine
Description: A culture medium (hereinafter referred to as "CS DMEM") containing 10% of calf serum, which was prepared so that 2.5 x 10⁴ of fibroblasts (balb/c 3T3 cells) were contained in 0.5 ml, was added in a 24-well plate in an amount of 0.5 ml per well. After the fibroblasts were confluent in the state of a single layer, the culture medium was replaced with the same amount of 1% CS DMEM and the cells were incubated at 37°C for 12 hours in a humidified atmosphere of 95% air-5% CO₂. Then, 1 µg/25 µl/well of trans-(6)-shogaol and 5 ng/25 µl/well of EGF (supplied by Collaborative Research, Inc.) were added, and the cells were further incubated for 16 hours. Then, 0.5 µCi(1.85+10⁻¹⁶S⁻¹)/50 µl of ³H-thymidine was added and the cells were further incubated 8 hours. The culture medium was removed, and the cells were washed with a cold phosphate buffered saline. […] The radioactivity of ³H-thymidine included in the cells by this growth was measured, and the action of trans-(6)-shogaol to the growth of the cells was examined.
10% CS DMEM prepared so that 2.5 x 10⁴ of fibroblasts (balb/c 3T3 cells) were contained in 0.5 ml were added in a 24-well plate in an amount of 0.5 ml/well. […] The radioactivity of ³H-thymidine included in the cells by this growth was measured, and the function of cis-(6)-shogaol to the growth of the cells was examined.

Acute toxicity test = test: Acute toxicity test; set-up: species or system mice; settings: mouse, in vivo
Description: as §1

Row | SMILES | IC50 (cyclooxygenase) [µM] | mortality [1] | IC50 (5-lipoxygenase) [µM] | growth inhibited, balb/c 3T3 cells the growth of which was promoted by EGF (balb/c 3T3 cells; Experiment 4: 0.5 µg/12.5 µl/well compound, 50 pg/25 µl/well mouse EGF) [%] | LD50 (Acute toxicity test; iv) [mg/kg] | LD50 (Acute toxicity test; oral administration, Litchfield-Wilcoxon method, male ICR mice, read-out: LD50) [mg/kg] | growth inhibited, balb/c 3T3 cells the growth of which was promoted by EGF (balb/c 3T3 cells; Experiment 1: 1 µg/25 µl/well compound, 5 ng/25 µl/well EGF) [%]
1 | CCCCC/C=C\C(=O)CCc1ccc(O)c(OC)c1 [cis-(6)-shogaol] | 11.7 | none of the mice died | 0.83 | 63.9 |  |  | 
2 | CCCCC/C=C/C(=O)CCc1ccc(O)c(OC)c1 [trans-(6)-shogaol, 1(4-hydroxy-3-methoxyphenyl)-(E)-4-decen-3-one] |  |  |  |  | 50.9 | 687 | 52.7
